Measured values published in the NIST ThermoML archive (doi:10.1016/j.jct.2012.06.020).

Test: mn = molality of the nth substance listed, in mol/kg
Conditions: 101 kPa, Liquid; for mass density: Vibrating tube method; for speed of sound: OPTIME 1.0 from OPTEL

O=S(=O)([O-])C(F)(F)F.O=S(=O)([O-])C(F)(F)F.O=S(=O)([O-])C(F)(F)F.[Lu+3] [lutetium(III) trifluoromethanesulfonate] + C[S+](C)[O-]
Conditions	mass density, 293.15 K [kg/m3]	mass density, 298.15 K [kg/m3]	mass density, 303.15 K [kg/m3]	mass density, 313.15 K [kg/m3]	mass density, 323.15 K [kg/m3]	mass density, 333.15 K [kg/m3]	speed of sound, 298.15 K [m/s]
m1 = 0.01878	1108.65	1103.62	1098.6	1088.57	1078.53	1068.49	–
m1 = 0.02625	1112.04	1107.02	1101.99	1091.95	1081.91	1071.88	–
m1 = 0.03372	1115.44	1110.42	1105.39	1095.36	1085.32	1075.28	–
m1 = 0.03373	–	–	–	–	–	–	1479.8
m1 = 0.04075	1118.67	1113.64	1108.62	1098.58	1088.54	1078.51	1478.9
m1 = 0.05063	1123.23	1118.2	1113.17	1103.14	1093.11	1083.07	1477.6
m1 = 0.06739	1131.05	1126.03	1121	1110.97	1100.94	1090.91	1475.5
m1 = 0.0825	1138.19	1133.17	1128.14	1118.09	1108.05	1098.05	1473.6
m1 = 0.09757	1145.41	1140.38	1135.36	1125.31	1115.27	1105.25	1471.7
m1 = 0.1139	1153.31	1148.28	1143.26	1133.2	1123.17	1113.14	1469.6
m1 = 0.1294	1160.93	1155.9	1150.87	1140.81	1130.77	1120.74	1467.6
m1 = 0.145	1168.67	1163.64	1158.61	1148.56	1138.52	1128.5	1465.7
m1 = 0.1599	1176.2	1171.16	1166.13	1156.07	1146.04	1136.01	1463.9

O=S(=O)([O-])C(F)(F)F.O=S(=O)([O-])C(F)(F)F.O=S(=O)([O-])C(F)(F)F.[Gd+3] [gadolinium (III) trifluoromethanesulfonate] + C[S+](C)[O-]
Conditions	mass density, 293.15 K [kg/m3]	mass density, 298.15 K [kg/m3]	mass density, 303.15 K [kg/m3]	mass density, 313.15 K [kg/m3]	mass density, 323.15 K [kg/m3]	mass density, 333.15 K [kg/m3]	speed of sound, 298.15 K [m/s]
m1 = 0.01963	1108.73	1103.71	1098.7	1088.67	1078.66	1068.64	1481.8
m1 = 0.02663	1111.79	1106.78	1101.77	1091.75	1081.75	1071.74	1481
m1 = 0.03818	1116.88	1111.88	1106.87	1096.87	1086.88	1076.89	1479.6
m1 = 0.04655	1120.6	1115.6	1110.6	1100.61	1090.63	1080.64	1478.6
m1 = 0.05549	1124.6	1119.6	1114.6	1104.62	1094.65	1084.68	1477.5
m1 = 0.06913	1130.74	1125.75	1120.76	1110.8	1100.84	1090.89	1475.9
m1 = 0.08877	1139.72	1134.74	1129.76	1119.82	1109.89	1099.96	1473.6
m1 = 0.1071	1148.2	1143.23	1138.26	1128.34	1118.43	1108.52	1471.5
m1 = 0.124	1156.16	1151.2	1146.24	1136.34	1126.45	1116.58	1469.4
m1 = 0.1457	1166.53	1161.57	1156.62	1146.75	1136.88	1127.04	1467
m1 = 0.1629	1174.88	1169.93	1165	1155.14	1145.31	1135.48	1465

O=S(=O)([O-])C(F)(F)F.O=S(=O)([O-])C(F)(F)F.O=S(=O)([O-])C(F)(F)F.[La+3] [lanthanum(III) trifluoromethanesulfonate] + C[S+](C)[O-]
Conditions	mass density, 293.15 K [kg/m3]	mass density, 298.15 K [kg/m3]	mass density, 303.15 K [kg/m3]	mass density, 313.15 K [kg/m3]	mass density, 323.15 K [kg/m3]	mass density, 333.15 K [kg/m3]	speed of sound, 298.15 K [m/s]
m1 = 0.01831	1107.63	1102.61	1097.59	1087.57	1077.55	1067.52	1482.3
m1 = 0.0248	1110.28	1105.26	1100.24	1090.22	1080.21	1070.19	1481.7
m1 = 0.03536	1114.62	1109.6	1104.59	1094.58	1084.58	1074.57	1480.7
m1 = 0.04296	1117.75	1112.74	1107.73	1097.73	1087.73	1077.74	1479.9
m1 = 0.05181	1121.43	1116.42	1111.41	1101.41	1091.43	1081.44	1479
m1 = 0.0646	1126.78	1121.77	1116.77	1106.78	1096.81	1086.84	1477.8
m1 = 0.08309	1134.62	1129.61	1124.62	1114.64	1104.68	1094.74	1476
m1 = 0.1003	1142	1136.99	1132	1122.04	1112.1	1102.16	1474.3
m1 = 0.1156	1148.66	1143.66	1138.68	1128.72	1118.8	1108.9	1472.9
m1 = 0.1362	1157.7	1152.71	1147.73	1137.79	1127.88	1117.99	1470.8
m1 = 0.1528	1165.12	1160.13	1155.15	1145.24	1135.35	1125.49	1469.3
